Data on three molecules can be found in US10131663B2, “Chemical compounds” (AstraZeneca AB, priority 2016, dated 2018).

Structures are written as SMILES. Converted amounts (≈) assume the structure as drawn.

For one data set, the target named is ERα receptor (Homo sapiens (Human), UniProt P03372). As to conditions: 500 mg monthly dose; cited from earlier work.
Data set [1] can be described thus: Human plasma protein binding (equilibrium dialysis). Format: in vitro ADME. The following applies: dialysis 18 hours. The method in brief: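 Fraction unbound (fu %) in human plasma, from LC/MSMS of plasma and buffer sides (7-point plasma calibration) after 18 h rapid equilibrium dialysis. Single determinations, with compounds pooled up to 10 per plasma pool.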

Data set [2] in a line: Human hepatocyte assay (metabolic stability). The format is in vitro ADME. The following applies: human hepatocytes. Here is the method: The metabolic stability of compounds in human hepatocytes was assessed using the following protocol: • 1. Prepare 10 mM stock solutions of compound and control compounds in appropriate solvent (DMSO). Place incubation medium (L-15 Medium) in a 37° C. water bath, and allow warming for at least 15 minutes prior to use. • 2. Add 80 μL of acetonitrile to each well of the 96-well deep well plate (quenching plate). • 3. In a new 96-well plate, dilute the 10 mM test compounds and the control compounds to 100 μM by combining 198 μL of acetonitrile and 2 μL of 10 mM stock. • 4. Remove a vial of cryopreserved (less than −150° C.) human hepatocytes (LiverPool™ 10 Donor Human hepatocytes obtained from Celsis IVT. Chicago, Ill. (Product No. S01205)) from storage, ensuring that vials remain at cryogenic temperatures until thawing process ensues. As quickly as possible, thaw the cells by placing the vial in a 37° C. water bath and gently shaking the vials. Vials should remain in water bath until all ice crystals have dissolved and are no longer visible. After thawing is complete, spray vial with 70% ethanol, transfer the vial to a bio-safety cabinet. • 5. Open the vial and pour the contents into the 50 mL conical tube containing thawing medium. Place the 50 mL conical tube into a centrifuge and spin at 100 g for 10 minutes. […] Using Cellometer® Vision, count cells and determine the viable cell density. Cells with poor viability (<80% viability) are not acceptable for use. […] Transfer 247.5 μL of hepatocytes into each well of a 96-well cell culture plate. Place the plate on Eppendorf Thermomixer Comfort plate shaker to allow the hepatocytes to warm for 10 minutes. • 8. Add 2.5 μL of 100 μM test compound or control compounds into an incubation well containing cells, mix to achieve a homogenous suspension at 0.5 min, which when achieved, will define the 0.5 min time point. At the 0.5 min time, transfer 20 μL of incubated mixture to wells in a “Quenching plate” followed by vortexing. • 9. Incubate the plate at 37° C. at 900 rpm on an Eppendorf Thermomixer Comfort plate shaker. […] Centrifuge the quenching plates for 20 minutes at 4,000 rpm. 4 different compounds are pooled into one cassette and used for LC/MS/MS analysis.
All calculations were carried out using Microsoft Excel. Peak areas were determined from extracted ion chromatograms. In vitro intrinsic clearance (in vitro Clint, in […]) of parent compound was determined by regression analysis of the Ln percent parent disappearance vs. time curve.
V=incubation volume (0.25 mL);
N=number of hepatocytes per well (0.25×10^6 cells).

Data set [3] concerns the target recombinant human Estrogen Receptor alpha ligand binding domain (ER alpha-LBD (GST)) (Homo sapiens (Human), UniProt P03372). The data set is described as follows: ERα binding assay (LanthaScreen TR-FRET competition). The following applies: TR-FRET, displacement of Fluormone ES2. The method in brief: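 Competition binding to GST-tagged human ERα ligand-binding domain, read by LanthaScreen TR-FRET: Tb-anti-GST antibody labels the receptor and compounds displace a fluorescent tracer, lowering the signal. IC50 was taken from dose-response curve fitting.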

Data set [4] can be described thus: Thermodynamic solubility (shake-flask). The format is physicochemical. As to conditions: aqueous phosphate buffer, 25 °C, pH 7.4, aqueous buffer, thermodynamic from solid, aqueous phosphate buffer pH 7.4, 24 hours. The method in brief:
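Shake-flask method starting from 10 mM DMSO stocks, which are dried before use. Residue equilibrated 24 h at 25° C. in aqueous phosphate buffer, pH 7.4. Dissolved fraction separated and quantified by UPLC/MS/MS, with QC samples in each run.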

A short description of data set [5]: Human Caco-2 bidirectional permeability A to B and B to A. Format: in vitro ADME. As to conditions: for Papp at 2 h: Caco-2, 2 hours, pH 7.4. On the procedure: An automated assay was used to determine the bidirectional permeability (efflux and uptake) of compounds in Caco-2 cells carried out over 2 hours at pH 7.4.
The efflux ratio (ER) can be determined using the following equation: ER=Papp(B-A)/Papp(A-B) Where Papp (B-A) indicates the apparent permeability coefficient in basolateral to apical direction, and Papp (A-B) indicates the apparent permeability coefficient in apical to basolateral direction. Human Caco-2 Passive Permeability A to B Papp
(Caco-2 cells form a polarised layer with tight junctions and transporters.)

The target of data set [6] is Estrogen Receptor (ERα) in MCF-7 cells (Homo sapiens (Human), UniProt P03372). The experiment in a line: MCF-7 ER down-regulation assay (immuno-fluorescence). Format: cell-based. The method in brief:
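Compounds dispensed acoustically from DMSO stocks onto MCF-7 cells; cells fixed 20 min at room temperature, then automated immunostaining for ERα with overnight incubation at 4° C. Read-out is mean total ER fluorescence intensity normalized to cell number (intensity per cell), with curve fitting for concentration-response values.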

A short description of data set [7]: log D (shake flask, 1-octanol/aqueous buffer). The format is physicochemical. The method in brief:
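Distribution between 1-octanol and aqueous buffer at pH 7.4 was measured by shake flask, with compounds run in mixtures of ten. Relative concentrations in each phase were quantified by UPLC with quantitative MS. Caffeine served as a low-log D QC sample in all runs.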

Data set [8] is described as follows: Human Caco-2 passive permeability A to B Papp. Format: in vitro ADME. As to conditions: apical pH 6.5, basolateral pH 7.4, efflux inhibitor cocktail. Here is the method: An automated assay was used to determine the passive permeability of compounds in Caco-2 cell monolayers carried out over 2 hours with an apical pH of 6.5 and basolateral pH of 7.4. The Caco-2 AB inhibition assay is carried out with chemical inhibition of the three major efflux transporters ABCB1 (P-gp), ABCG2 (BCRP) and ABCC2 (MRP2) in Caco-2 cells. Incubation of both apical and basolateral is carried out with a cocktail of inhibitors (50 μM quinidine, 20 μM sulfasalazine and 100 μM benzbromarone). Samples were analyzed through LC/MS/MS to estimate the apparent permeability coefficients (Papp) of compounds across Caco-2 cell monolayers and results are quoted in units of ×10^−6 cm/s.

As a reminder, the hepatocyte CLint is a measure of how fast metabolising enzymes remove a compound, apart from limits set by blood flow. A higher hepatocyte CLint goes with faster metabolism. As usually defined, the IC50 is the concentration that gives 50% inhibition. As usually defined, the solubility is the dissolved amount per volume that the medium holds. As usually defined, the Papp is a coefficient for how fast a substance crosses the barrier. A lower Papp goes with poor permeation. As usually defined, the efflux ratio is a quotient of directional permeabilities that is used to spot active efflux. In general, logD refers to the decadic logarithm of the distribution of all forms, ionised or not, between an organic phase and buffer at a given pH. Low values mean lower lipophilicity, high ones higher lipophilicity.

Chain of recombinant human Estrogen Receptor alpha ligand binding domain (ER alpha-LBD (GST)) (P03372 307-554): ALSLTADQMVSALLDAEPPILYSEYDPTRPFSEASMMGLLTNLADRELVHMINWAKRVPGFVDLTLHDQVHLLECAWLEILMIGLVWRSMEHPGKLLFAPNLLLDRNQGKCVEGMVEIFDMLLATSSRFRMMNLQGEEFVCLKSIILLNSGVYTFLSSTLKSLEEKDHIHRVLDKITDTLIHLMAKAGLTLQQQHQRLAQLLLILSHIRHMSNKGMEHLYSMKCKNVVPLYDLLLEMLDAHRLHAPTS
Chain of Estrogen Receptor (ERα) in MCF-7 cells (P03372 whole entry): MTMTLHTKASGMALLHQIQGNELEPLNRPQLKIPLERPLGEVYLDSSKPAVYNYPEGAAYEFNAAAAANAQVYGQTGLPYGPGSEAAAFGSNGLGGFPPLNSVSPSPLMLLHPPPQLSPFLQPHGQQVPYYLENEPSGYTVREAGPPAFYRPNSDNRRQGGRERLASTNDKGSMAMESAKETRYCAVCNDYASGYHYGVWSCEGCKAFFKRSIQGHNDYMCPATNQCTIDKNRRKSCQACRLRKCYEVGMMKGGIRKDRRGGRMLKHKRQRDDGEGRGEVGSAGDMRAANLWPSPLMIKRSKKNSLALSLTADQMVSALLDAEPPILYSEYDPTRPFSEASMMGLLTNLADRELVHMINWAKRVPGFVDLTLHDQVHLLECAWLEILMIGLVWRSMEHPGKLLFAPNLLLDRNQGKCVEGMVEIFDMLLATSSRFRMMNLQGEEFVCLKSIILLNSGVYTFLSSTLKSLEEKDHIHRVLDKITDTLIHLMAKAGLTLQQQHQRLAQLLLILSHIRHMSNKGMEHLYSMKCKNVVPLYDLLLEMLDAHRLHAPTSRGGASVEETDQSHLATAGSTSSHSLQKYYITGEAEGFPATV
Chain of ERα receptor (P03372 whole entry): as above

As to `C[C@]12CC[C@@H]3c4ccc(O)cc4C[C@@H](CCCCCCCCC[S+]([O-])CCCC(F)(F)C(F)(F)F)[C@H]3[C@@H]1CC[C@@H]2O` (some centres unmarked) [Fulvestrant, fulvestrant], on ERα receptor, the “turnover of the receptor in patient samples” value is recorded as “less than 50%”.
Regarding `C[C@@H]1Cc2c(ccc3[nH]ncc23)[C@@H](c2c(F)cc(NC3CN(CCCF)C3)cc2F)N1CC1(F)CC1` [Example 11, N-(3,5-difluoro-4-((6S,8R)-7-((1-fluorocyclopropyl)methyl)-8-methyl-6,7,8,9-tetrahydro-3H-pyrazolo[4,3-f]isoquinolin-6-yl)phenyl)-1-(3-fluoropropyl)azetidin-3-amine], in data set [1], the “Human plasma protein binding (% free)” value came to 2 % free. In [2], this molecule showed a hepatocyte CLint at 1 µM of 7 µL/min/1e6 cells. In addition, the IC50 was 20 nM in [3] and 0.094 nM in data set [6]. In [4], the solubility at 24 h is 186 µM (≈ 93.3 µg/mL). Moreover, the Papp at 2 h in [5] turned out to be 1.6 ×10⁻⁶ cm/s. In [5] (Caco-2, pH 7.4), the efflux ratio at 2 h amounted to 1.4. In data set [7] (1-octanol/aqueous buffer, pH 7.4, pH 7.4, 1-octanol/aqueous buffer), this molecule gave a logD of 3.9.
As to `C[C@@H]1Cc2c(ccc3[nH]ncc23)[C@@H](c2ccc(NC3CN(CCCF)C3)c(F)n2)N1CC(F)(F)F` [Example 29, 2-fluoro-N-(1-(3-fluoropropyl)azetidin-3-yl)-6-((6S,8R)-8-methyl-7-(2,2,2-trifluoroethyl)-6,7,8,9-tetrahydro-3H-pyrazolo[4,3-f]isoquinolin-6-yl)pyridin-3-amine], the “Human plasma protein binding (% free)” value in data set [1] is given as 16 % free. Further, the solubility at 24 h in data set [4] is 779 µM (≈ 385 µg/mL). Besides, the figures for the Papp at 2 h in data set [5] and in data set [8] were 12 ×10⁻⁶ cm/s and 24 ×10⁻⁶ cm/s, respectively. Moreover, in data set [7] (pH 7.4, 1-octanol/aqueous buffer), the logD turned out to be 3.
